Laboratory results as given in US10183943B2, “Heterocyclic compounds and their use in preventing or treating bacterial infections” (MUTABILIS, priority 2015, dated 2019).

Key:
AmpC (P99) = AmpC (P99) (Enterobacter cloacae, UniProt P05364); test: β-lactamase inhibitory activity, determination of IC50 (nitrocefin hydrolysis)
OXA-48 = target: T1, OXA-48 (Klebsiella pneumoniae, UniProt Q6XEC0); test: as above; assay type: biochemical; details: class (D); nitrocefin 200 μM, 30 min pre-incubation; read-out: IC50 β-lactamase OXA-48
T1 construct: made in house; host or cells: E. coli
T1 sequence (Q6XEC0 23-265 limits assumed): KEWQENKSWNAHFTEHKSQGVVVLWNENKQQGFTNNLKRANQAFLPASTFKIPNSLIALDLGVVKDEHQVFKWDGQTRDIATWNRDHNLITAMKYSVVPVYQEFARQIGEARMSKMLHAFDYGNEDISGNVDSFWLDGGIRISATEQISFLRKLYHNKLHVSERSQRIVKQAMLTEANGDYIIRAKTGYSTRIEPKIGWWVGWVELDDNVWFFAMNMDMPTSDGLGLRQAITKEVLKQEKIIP

OXA-15 = target: T2, OXA-15 (Pseudomonas aeruginosa, UniProt Q51574); test: biochemical
T2 construct: made in house; host or cells: E. coli
T2 sequence (Q51574 22-275): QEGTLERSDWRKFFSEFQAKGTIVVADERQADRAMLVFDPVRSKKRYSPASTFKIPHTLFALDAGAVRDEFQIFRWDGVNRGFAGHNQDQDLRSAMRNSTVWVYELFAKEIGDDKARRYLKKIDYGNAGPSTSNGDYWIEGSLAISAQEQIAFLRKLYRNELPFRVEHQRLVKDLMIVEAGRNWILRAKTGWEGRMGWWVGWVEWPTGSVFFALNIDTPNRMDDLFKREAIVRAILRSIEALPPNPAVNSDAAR

OXA-1 = target: T3, OXA-1 (Escherichia coli, UniProt P13661); test: β-lactamase inhibitory activity, determination of IC50 (nitrocefin hydrolysis); assay type: biochemical; details: class (D); nitrocefin 200 μM, 30 min pre-incubation; read-out: IC50 β-lactamase OXA-1
T3 construct: made in house; host or cells: E. coli
T3 sequence (P13661 26-276): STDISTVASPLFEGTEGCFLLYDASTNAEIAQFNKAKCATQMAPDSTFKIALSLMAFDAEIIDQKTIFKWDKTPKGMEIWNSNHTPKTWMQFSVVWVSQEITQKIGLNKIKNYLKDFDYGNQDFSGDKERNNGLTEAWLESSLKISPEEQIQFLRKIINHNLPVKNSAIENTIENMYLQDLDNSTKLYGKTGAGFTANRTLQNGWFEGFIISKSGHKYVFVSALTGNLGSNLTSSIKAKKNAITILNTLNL

AmpC P. aeruginosa = AmpC P. aeruginosa (Pseudomonas aeruginosa, UniProt P24735); test: as above
Sequence of AmpC P. aeruginosa (P24735 27-397): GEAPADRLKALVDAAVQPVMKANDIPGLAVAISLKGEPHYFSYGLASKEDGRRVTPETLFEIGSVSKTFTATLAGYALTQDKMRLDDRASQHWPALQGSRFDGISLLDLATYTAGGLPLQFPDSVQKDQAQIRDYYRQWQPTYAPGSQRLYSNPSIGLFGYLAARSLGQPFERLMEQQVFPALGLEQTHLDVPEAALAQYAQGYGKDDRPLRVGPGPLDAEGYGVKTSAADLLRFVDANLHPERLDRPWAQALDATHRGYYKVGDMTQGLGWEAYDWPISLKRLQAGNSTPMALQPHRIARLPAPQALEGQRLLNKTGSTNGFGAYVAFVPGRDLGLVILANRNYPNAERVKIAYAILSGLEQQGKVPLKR

SHV-1 = target: T4, SHV-1 (Klebsiella pneumoniae, UniProt P0AD64); test: as above; assay type: biochemical
T4 construct: made in house; host or cells: E. coli
T4 sequence (P0AD64 22-286): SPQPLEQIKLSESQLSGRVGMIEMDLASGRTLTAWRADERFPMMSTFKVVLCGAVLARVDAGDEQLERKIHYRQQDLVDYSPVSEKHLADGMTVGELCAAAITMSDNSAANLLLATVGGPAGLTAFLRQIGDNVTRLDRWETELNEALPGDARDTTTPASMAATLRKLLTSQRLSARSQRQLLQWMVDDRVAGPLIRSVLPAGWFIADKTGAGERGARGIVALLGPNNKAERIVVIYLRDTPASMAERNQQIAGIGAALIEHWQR

TEM-1 = target: T5, TEM-1 (Escherichia coli, UniProt P62593); test: as above; assay type: biochemical
T5 construct: made in house; host or cells: E. coli
T5 sequence (P62593 24-286 limits assumed): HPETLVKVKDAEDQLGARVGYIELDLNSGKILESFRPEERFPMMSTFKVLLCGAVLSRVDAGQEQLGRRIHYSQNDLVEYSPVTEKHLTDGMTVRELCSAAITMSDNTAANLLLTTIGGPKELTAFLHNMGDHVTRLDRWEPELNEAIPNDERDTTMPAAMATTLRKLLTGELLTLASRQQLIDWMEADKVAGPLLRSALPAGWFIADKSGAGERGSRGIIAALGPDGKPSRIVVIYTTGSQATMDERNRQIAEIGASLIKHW

CTX-M-15 = target: T6, CTX-M-15 (Escherichia coli, UniProt Q9EXV5); test: as above; assay type: biochemical; details: class (A); nitrocefin 200 μM, 30 min pre-incubation; read-out: IC50 β-lactamase CTX-M-15
T6 construct: made in house; host or cells: E. coli
T6 sequence (Q9EXV5 entry or part of it): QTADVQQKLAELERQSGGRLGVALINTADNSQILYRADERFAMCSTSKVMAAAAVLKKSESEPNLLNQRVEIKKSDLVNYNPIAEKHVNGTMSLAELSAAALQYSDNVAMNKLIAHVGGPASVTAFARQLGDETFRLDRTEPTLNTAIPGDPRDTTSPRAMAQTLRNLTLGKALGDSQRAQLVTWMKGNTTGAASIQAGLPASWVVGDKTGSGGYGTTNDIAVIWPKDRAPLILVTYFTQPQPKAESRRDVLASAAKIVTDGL

[1] = system: K. pneumoniae BAA-1898 (TEM-1, SHV-11, SHV-12, KPC-2); test: MIC of compounds alone, broth microdilution; assay type: cell-based; details: Klebsiella pneumoniae, BAA1898; strain BAA-1898 (K. pneumoniae); read-out: MIC compounds of the invention alone
Procedure: (§1) Method 2: MIC of Compounds and Synergy with Ceftazidime Against Bacterial Isolates (Table 2 and 3)
(§2) Compounds of the present invention were assessed against genotyped bacterial strains alone or in combination with the β-lactam ceftazidime (CAZ). In the assays, MICs of said compounds, or of ceftazidime at fixed concentrations of said compounds were determined by the broth microdilution method according to the Clinical Laboratory Standards Institute (CLSI-M7-A7). Briefly, compounds alone according to the invention were prepared in DMSO and spotted (2 μL each) on sterile polystyrene plates (Corning, 3788). Compounds and ceftazidime dilutions were prepared in DMSO and spotted (1 μL each) on sterile polystyrene plates (Corning, 3788). Log phase bacterial suspensions were adjusted to a final density of 5×10^5 cfu/mL in cation-adjusted Mueller-Hinton broth (Becton-Dickinson) and added to each well (98 μL). Microplates were incubated for 16-20 h at 35° C. in ambient air. The MIC of the compounds was defined as the lowest concentration of said compounds that prevented bacterial growth as read by visual inspection. The MIC of ceftazidime at each compound concentration was defined as the lowest concentration of ceftazidime that prevented bacterial growth as read by visual inspection.

[2] = system: K. pneumoniae 6299 (TEM-1, SHV-11, OXA-163); test: MIC of compounds alone, broth microdilution; assay type: cell-based; details: Klebsiella pneumoniae; strain 6299 (K. pneumoniae); read-out: MIC compounds of the invention alone
Procedure: as §1, §2

[3] = system: P. aeruginosa CIP107051 (TEM-24); test: MIC of compounds alone, broth microdilution; assay type: cell-based; details: Pseudomonas aeruginosa; strain CIP107051 (P. aeruginosa); read-out: MIC compounds of the invention alone
Procedure: as §1, §2

E. cloacae P99 (AmpC) = test: MIC of compounds alone, broth microdilution; assay type: cell-based; details: Enterobacter cloacae; strain P99 (E. cloacae); read-out: MIC compounds of the invention alone
Procedure: as §1, §2

[4] = system: E. coli 190317 (TEM-1, SHV-12, CTX-M-15, OXA-1); test: MIC of compounds alone, broth microdilution; assay type: cell-based; details: Escherichia coli, read-out: MIC compounds of the invention alone
Procedure: as §1, §2

E. coli RGN238 (OXA-1) = test: MIC of compounds alone, broth microdilution; assay type: cell-based; details: Escherichia coli; strain RGN238 (E. coli); read-out: MIC compounds of the invention alone
Procedure: as §1, §2

[5] = system: E. coli 131119 (TEM-1, OXA-48); test: MIC of compounds alone, broth microdilution; assay type: cell-based; details: Escherichia coli; strain 131119 (E. coli); read-out: MIC compounds of the invention alone
Procedure: as §1, §2

OXA-11 = target: T7, OXA-11 (Pseudomonas aeruginosa, UniProt Q06778); test: β-lactamase inhibitory activity, determination of IC50 (nitrocefin hydrolysis); assay type: biochemical
T7 construct: made in house; host or cells: E. coli
T7 sequence (Q06778 21-266): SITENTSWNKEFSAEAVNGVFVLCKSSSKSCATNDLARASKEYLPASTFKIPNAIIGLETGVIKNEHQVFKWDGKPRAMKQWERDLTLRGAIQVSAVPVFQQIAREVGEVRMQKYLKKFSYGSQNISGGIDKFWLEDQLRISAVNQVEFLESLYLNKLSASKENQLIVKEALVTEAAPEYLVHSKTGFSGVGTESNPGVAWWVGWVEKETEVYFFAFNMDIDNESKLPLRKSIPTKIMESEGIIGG

KPC-2 = target: T8, KPC-2 (Klebsiella pneumoniae, UniProt Q9F663); test: as above; assay type: biochemical; details: class (A); nitrocefin 200 μM, 30 min pre-incubation; read-out: IC50 β-lactamase KPC-2
T8 construct: made in house; host or cells: E. coli
T8 sequence (Q9F663 25-293 limits assumed): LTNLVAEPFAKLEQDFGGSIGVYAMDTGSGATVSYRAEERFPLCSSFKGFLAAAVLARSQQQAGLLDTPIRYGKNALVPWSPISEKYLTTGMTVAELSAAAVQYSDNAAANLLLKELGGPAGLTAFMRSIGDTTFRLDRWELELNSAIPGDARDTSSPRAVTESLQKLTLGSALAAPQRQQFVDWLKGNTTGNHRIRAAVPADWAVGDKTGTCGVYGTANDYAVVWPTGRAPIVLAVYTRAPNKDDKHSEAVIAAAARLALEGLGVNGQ

Sequence of AmpC (P99) (P05364 21-381): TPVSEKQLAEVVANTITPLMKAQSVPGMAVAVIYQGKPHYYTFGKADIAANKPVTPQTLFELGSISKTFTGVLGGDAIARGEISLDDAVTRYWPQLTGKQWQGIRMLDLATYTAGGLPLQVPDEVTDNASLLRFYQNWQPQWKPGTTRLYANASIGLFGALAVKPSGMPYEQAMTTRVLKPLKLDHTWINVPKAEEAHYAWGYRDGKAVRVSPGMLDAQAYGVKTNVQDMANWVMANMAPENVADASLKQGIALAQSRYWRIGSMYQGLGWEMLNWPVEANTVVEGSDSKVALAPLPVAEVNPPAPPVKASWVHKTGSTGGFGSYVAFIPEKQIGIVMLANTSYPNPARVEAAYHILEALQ

SMILES | IC50 (AmpC (P99)) | IC50 (OXA-48) | IC50 (OXA-15) | IC50 (OXA-1) | IC50 (AmpC P. aeruginosa) | IC50 (SHV-1) | IC50 (TEM-1) | IC50 (CTX-M-15) | MIC [1] | MIC [2] | MIC [3] | MIC (E. cloacae P99 (AmpC)) | MIC [4] | MIC (E. coli RGN238 (OXA-1)) | MIC [5] | IC50 (OXA-11) | IC50 (KPC-2)
O=C1N2CC=C(c3ccncc3)C(C2)N1OS(=O)(=O)[O-].[Na+] (stereo not shown) [Example 7, Sodium [4-(4-pyridyl)-7-oxo-1,6-diazabicyclo[3.2.1]oct-3-en-6-yl]sulfate] | 1700 nM | 4.9 nM | 95 nM | 250 nM | 2200 nM | 30 nM | 12 nM | 13 nM | > 32 µg/mL | > 32 µg/mL | > 32 µg/mL | > 32 µg/mL | 8 µg/mL | > 32 µg/mL | > 32 µg/mL | 2300 nM | 150 nM
Cn1cc(C2=CCN3CC2N(OS(=O)(=O)[O-])C3=O)ccc1=O.[Na+] (stereo not shown) [Example 8, Sodium [4-(N-methyl-6-oxo-3-pyridyl)-7-oxo-1,6-diazabicyclo[3.2.1]oct-3-en-6-yl] sulfate] | 1900 nM | 2.2 nM | 140 nM | 690 nM | 3300 nM | 19 nM | 8.2 nM | 12 nM | > 32 µg/mL | > 32 µg/mL | > 32 µg/mL | > 32 µg/mL | 8 µg/mL | > 32 µg/mL | > 32 µg/mL | 1400 nM | 170 nM
O=C1N2CC=C(c3cncnc3)C(C2)N1OS(=O)(=O)[O-].[Na+] (stereo not shown) [Example 10, Sodium [4-(pyrimidin-5-yl)-7-oxo-1,6-diazabicyclo[3.2.1]oct-3-en-6-yl] sulfate] | 1100 nM | 6.1 nM | 140 nM | 200 nM | 2600 nM | 21 nM | 7.7 nM | 8.3 nM | > 32 µg/mL | > 32 µg/mL | > 32 µg/mL | 16 µg/mL | > 32 µg/mL | > 32 µg/mL | 16 µg/mL | 1300 nM | 130 nM
O=C1N2CC=C(c3ccccn3)C(C2)N1OS(=O)(=O)[O-].[Na+] (stereo not shown) [Example 11, Sodium [4-(2-pyridyl)-7-oxo-1,6-diazabicyclo[3.2.1]oct-3-en-6-yl]sulfate] | 8900 nM | 5.1 nM | 310 nM | 1300 nM | 4600 nM | 56 nM | 27 nM | 29 nM | > 32 µg/mL | > 32 µg/mL | > 32 µg/mL | > 32 µg/mL | > 32 µg/mL | > 32 µg/mL | > 32 µg/mL | 6400 nM | 1800 nM
O=C1N2CC=C(c3cnccn3)C(C2)N1OS(=O)(=O)[O-].[Na+] (stereo not shown) [Example 12, Sodium [4-(pyrazin-2-yl)-7-oxo-1,6-diazabicyclo[3.2.1]oct-3-en-6-yl]sulfate] | 1400 nM | 3.2 nM | 66 nM | 350 nM | 1600 nM | 6.9 nM | 3.1 nM | 5.7 nM | > 32 µg/mL | > 32 µg/mL | > 32 µg/mL | > 32 µg/mL | > 32 µg/mL | > 32 µg/mL | 16 µg/mL | 1200 nM | 310 nM
Cn1cccc(C2=CCN3CC2N(OS(=O)(=O)[O-])C3=O)c1=O.[Na+] (stereo not shown) [Example 16, Sodium [4-(N-methyl-2-oxo-3-pyridyl)-7-oxo-1,6-diazabicyclo[3.2.1]oct-3-en-6-yl] sulfate] | 7300 nM | 10 nM | 27 nM | 720 nM | 7100 nM | 120 nM | 56 nM | 100 nM | > 32 µg/mL | > 32 µg/mL | > 32 µg/mL | > 32 µg/mL | > 32 µg/mL | > 32 µg/mL | > 32 µg/mL | 7400 nM | 4500 nM
Cn1nc(C2=CCN3CC2N(OS(=O)(=O)[O-])C3=O)ccc1=O.[Na+] (stereo not shown) [Example 17, Sodium [4-(1-methyl-6-oxo-pyridazin-3-yl)-7-oxo-1,6-diazabicyclo[3.2.1]oct-3-en-6-yl] sulfate] | 2300 nM | 3.9 nM | 57 nM | 330 nM | 910 nM | 2.8 nM | 1.2 nM | 5.7 nM | > 32 µg/mL | > 32 µg/mL | > 32 µg/mL | 16 µg/mL | 4 µg/mL | 32 µg/mL | 16 µg/mL | 1400 nM | 130 nM
Cn1c(C2=CCN3CC2N(OS(=O)(=O)[O-])C3=O)cccc1=O.[Na+] (stereo not shown) [Example 18, Sodium [4-(N-methyl-6-oxo-2-pyridyl)-7-oxo-1,6-diazabicyclo[3.2.1]oct-3-en-6-yl] sulfate] | 230 nM | 20 nM | 14 nM | 35 nM | 2700 nM | 11 nM | 2.7 nM | 17 nM | > 32 µg/mL | > 32 µg/mL | > 32 µg/mL | 16 µg/mL | > 32 µg/mL | > 32 µg/mL | > 32 µg/mL | 540 nM | 1800 nM
Cn1cnc(C2=CCN3CC2N(OS(=O)(=O)[O-])C3=O)cc1=O.[Na+] (stereo not shown) [Example 20, Sodium [4-(N-methyl-6-oxo-pyrimidin-4-yl)-7-oxo-1,6-diazabicyclo[3.2.1]oct-3-en-6-yl] sulfate] | 1900 nM | 2.2 nM | 94 nM | 1900 nM | 3200 nM | 6.7 nM | 1 nM | 3.5 nM | > 32 µg/mL | > 32 µg/mL | > 32 µg/mL | 32 µg/mL | 8 µg/mL | > 32 µg/mL | 32 µg/mL | 430 nM | 87 nM
Cn1cc(C2=CCN3CC2N(OS(=O)(=O)[O-])C3=O)c(=O)n(C)c1=O.[Na+] (stereo not shown) [Example 23, Sodium [4-(1,3-dimethyluracil-5-yl)-7-oxo-1,6-diazabicyclo[3.2.1]oct-3-en-6-yl] sulfate] | 580 nM | 4.8 nM | 110 nM | 870 nM | 1600 nM | 3.1 nM | 1.5 nM | 12 nM | > 32 µg/mL | > 32 µg/mL | > 32 µg/mL | > 32 µg/mL | > 32 µg/mL | > 32 µg/mL | 32 µg/mL | 2200 nM | 97 nM
COc1ncc(C2=CCN3CC2N(OS(=O)(=O)[O-])C3=O)cn1.[Na+] (stereo not shown) [Example 24, Sodium [4-(2-methoxypyrimidin-5-yl)-7-oxo-1,6-diazabicyclo[3.2.1]oct-3-en-6-yl] sulfate] | 1100 nM | 3.6 nM | 48 nM | 380 nM | 1400 nM | 20 nM | 12 nM | 14 nM | > 32 µg/mL | > 32 µg/mL | > 32 µg/mL | > 32 µg/mL | 16 µg/mL | > 32 µg/mL | > 32 µg/mL | 1200 nM | 160 nM
